# Test results taken from US6562978B1, “Cyclic amine compounds as CCR5 antagonists” (Takeda Chemical Industries, Ltd., priority 1999, dated 2003).
# Structures can show the parent of a compound that is named as a salt.
# Target: T1, human CCR5 (Homo sapiens, UniProt P51681)
# T1 construct: expressed in transfected cells; whole cells in the well
# Test: CCR5 binding assay: inhibition of [125I]-RANTES binding to CHO/CCR5 cells
# Conditions: 1.0 μM test compound, 100 pM [125I]-RANTES, room temperature 40 minutes
# Description: (1) Cloning of Human CCR5 Chemokine Receptor
# Cloning of CCR5 gene was carried out by PCR (polymerase chain reaction) from human spleen cDNA. With using 0.5 ng of spleen cDNA (Toyobo, QUICK-Clone cDNA) as template, PCR was performed in DNA Thermal Cycler 480 (Perkin-Elmer) (reaction conditions: 30 cycles of 95° C. for 1 minute, 60° C. for 1 minute, and 75° C. for 5 minutes) by adding primer set, 5′-[…]-3′ (25 pmol) and 5′-[…]-3′ (25 pmol), which were designed referring to nucleotide sequence of CCR5 gene reported by Samson et al. (Biochemistry, 35(11), 3362-3367 (1996)) and by using TaKaRa EX Taq (Takara Shuzo). The resultant PCR product was subjected to agarose gel electrophoresis to collect about 1.0 kb DNA fragment, which was subjected to Original TA Cloning Kit (Funakoshi) to carry out cloning of CCR5 gene.
# (2) Preparation of Plasmid for Expression of Human […]
# The plasmid obtained in the above (1) was digested with restriction enzymes XbaI (Takara Shuzo) and BamHI (Takara Shuzo) and subjected to agarose gel electrophoresis to collect about 1.0 kb DNA fragment. The DNA fragment was mixed with plasmid pcDNA3.1 (Funakoshi) for expression in animal cells, said plasmid being digested with XbaI and BamHI, and they were ligated with DNA Ligation Kit Ver.2 (Takara Shuzo). The resulting plasmid was subjected to transformation of competent cell of E. coli JM109 (Takara Shuzo) to obtain plasmid pCKR5.
# (3) Introduction of Plasmid for Expression of Human CCR5 into CHO-K1 Cell and Expression of said Plasmid in CHO-KY Cell
# CHO-K1 cells were grown in 750 ml of tissue culture flask (Becton Dickinson) using Ham's F12 medium (Nihon Pharmaceutical) containing 10% fetal calf serum (Life Tech Oriental) and took off with 0.5 g/L trypsin-0.2 g/L EDTA (Life Tech Oriental). The cells were washed with PBS (Life Tech Oriental), centrifuged (1000 rpm, 5 minutes), and suspended in PBS. With using Gene Pulser (Bio-Rad Laboratories), DNA was introduced into the cells under the conditions shown below. That is, to the cuvette of 0.4 cm gap were added 8×10^6 cells and 10 μg of plasmid pCKR5 for expression of human CCR5, and electroporation was carried out under 0.25 kV of voltage and […] of capacitance. The cells were transferred into Ham's F12 medium (Nihon Pharmaceutical) containing 10% fetal calf serum, and cultivated for 24 hours. The cells were again took off and centrifuged, and suspended in Ham's F12 medium (Nihon Pharmaceutical) containing 10% fetal calf serum and 500 μg/ml of geneticin (Life Tech Oriental). The suspension was diluted to give 10^4 cells/ml of the suspension, which was inoculated on 96 well plate (Becton Dickinson) to give geneticin resistant cells. The resulting geneticin resistant cells were cultivated in 96 well plate (Becton Dickinson), and cells expressing CCR5 were selected from the geneticin resistant cells. That is, in assay buffer (Ham's F12 medium containing 0.5% BSA and 20 mM HEPES (Wako Pure Chemical, pH7.2) to which was added 200 pM of [^125I]-RANTES (Amersham) as ligand, binding reaction was carried out at room temperature for 40 minutes, and the buffer was washed with cooled PBS. To the buffer was added 50 μl/well of 1M NaOH, and the mixture was stirred. Radioactivity was determined with γ-counter to select CHO/CCR5 cells which specifically bind to the ligand.
# (4) Evaluation of Test Compounds Based on CCR5 Antagonistic Activity
# The CHO/CCR5 were inoculated on 96 well microplate (5×10^4 cells/well) and cultivated for 24 hours. The medium was removed by means of suction, and to each well was added assay buffer containing Test Compound (191) and then 100 pM of [^125I]-RANTES (Amersham) as ligand. Binding assay was carried out at room temperature for 40 minutes, and assay buffer was removed by means of suction. Each well was washed twice with cooled PBS, and 200 μl of Microscint-20 (Packard Instrument, Inc.) was added to each well.
# T1 sequence (P51681 whole entry): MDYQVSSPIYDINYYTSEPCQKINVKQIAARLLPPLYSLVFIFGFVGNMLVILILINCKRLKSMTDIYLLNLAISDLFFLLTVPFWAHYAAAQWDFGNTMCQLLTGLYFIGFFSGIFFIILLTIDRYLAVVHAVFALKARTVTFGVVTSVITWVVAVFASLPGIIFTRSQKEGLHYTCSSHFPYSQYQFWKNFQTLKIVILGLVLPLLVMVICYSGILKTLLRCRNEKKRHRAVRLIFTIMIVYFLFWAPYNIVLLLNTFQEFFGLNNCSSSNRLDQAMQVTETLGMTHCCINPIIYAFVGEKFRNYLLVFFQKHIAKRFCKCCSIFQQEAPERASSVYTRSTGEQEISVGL
row,Inhibition Rate (%) at 1.0 μM [%],SMILES
1,96,"CC(=O)N1CCC(C(=O)N(CCCN2CCN(Cc3c(C)noc3C)CC2)c2cccc(Cl)c2)CC1.O=C(O)C(F)(F)F.O=C(O)C(F)(F)F [Example 272, 1-Acetyl-N-(3-chlorophenyl)-N-(3-{4-[(3,5-dimethylisoxazol-4-yl)methyl]-1-piperazinyl}propyl)-4-piperidinecarboxamide 2 Trifluoroacetate]"
2,97,CC(=O)N1CCC(C(=O)N(CCCN2CCC(Sc3nc4ccccc4s3)CC2)c2ccc(Cl)c(Cl)c2)CC1 [Example 224]

# Same assay, conditions: 1.0 μM test compound, 100 pM [125I]-RANTES, room temperature 40 minutes, read-out: Inhibition Rate (%) at 1.0 μM
row,inhibition at 1 µM [%],SMILES
1,100,"CC(=O)N1CCC(C(=O)N(CCCN2CCC(S(=O)(=O)c3ccc(F)cc3)CC2)c2ccc(Cl)c(Cl)c2)CC1 [Example 189, 1-Acetyl-N-(3,4-dichlorophenyl)-N-{3-[4-(4-fluorophenylsulfonyl)-1-piperidinyl]propyl}-4-piperidinecarboxamide]"
2,100,"CC(C)S(=O)(=O)c1ccc(CC2CCN(CCCN(C(=O)C3CCN(S(C)(=O)=O)CC3)c3ccc(Cl)c(Cl)c3)CC2)cc1 [Example 384, N-(3,4-Dichlorophenyl)-N-(3-{4-[4-(isopropylsulfonyl)benzyl]-1-piperidinyl}propyl)-1-(methylsulfonyl)-4-piperidinecarboxamide]"
3,83,"CC(=O)N1CCC(C(=O)N(CCCN2CCC(n3nnc4ccccc43)CC2)c2cccc(Cl)c2)CC1 [Example 289, 1-Acetyl-N-{3-[4-(1H-1,2,3-benzotriazol-1-yl)-1-piperidinyl]propyl}-N-(3-chlorophenyl)-4-piperidinecarboxamide]"
4,94,"COc1ccc(CC2CCN(CCCN(C(=O)C3CCN(C(C)=O)CC3)c3ccc(Cl)c(Cl)c3)CC2)cc1 [Example 249, 1-Acetyl-N-(3,4-dichlorophenyl)-N-{3-[4-(4-methoxybenzyl)-1-piperidinyl]propyl}-4-piperidinecarboxamide]"
5,100,"CC(=O)N1CCC(C(=O)N(CCCN2CCC(Cc3ccc(N4CCOCC4)cc3)CC2)c2ccc(Cl)c(Cl)c2)CC1 [Example 318, 1-Acetyl-N-(3,4-dichlorophenyl)-N-{3-[4-(4-morpholinobenzyl)-1-piperidinyl]propyl}-4-piperidinecarboxamide]"
6,87,"CC(=O)N1CCC(C(=O)N(CCCN2CCC(Cc3ccc(F)cc3)CC2)c2cccc(Cl)c2)CC1 [Example 18, 1-Acetyl-N-(3-chlorophenyl)-N-{3-[4-(4-fluorobenzyl)-1-piperidinyl]propyl}-4-piperidinecarboxamide]"
7,90,"CC(=O)N1CCC(C(=O)N(CCCN2CCC(Nc3ccc(C#N)cc3)CC2)c2ccc(Cl)c(Cl)c2)CC1 [Example 211, 1-Acetyl-N-{3-[4-(4-cyanoanilino)-1-piperidinyl]propyl}-N-(3,4-dichlorophenyl)-4-piperidinecarboxamide]"
8,84,"CC(=O)N1CCC(C(=O)N(CCCN2CCC(C#N)(Cc3ccccc3)CC2)c2cccc(Cl)c2)CC1 [Example 291, 1-Acetyl-N-[3-(4-benzyl-4-cyano-1-piperidinyl)propyl]-N-(3-chlorophenyl)-4-piperidinecarboxamide]"
9,92,"CS(=O)(=O)c1ccc(OC2CCN(CCCN(C(=O)C3CCN(S(C)(=O)=O)CC3)c3ccc(Cl)c(Cl)c3)CC2)cc1 [Example 374, N-(3,4-Dichlorophenyl)-1-(methylsulfonyl)-N-(3-{4-[4-(methylsulfonyl)phenoxy]-1-piperidinyl}propyl)-4-piperidinecarboxamide]"
10,90,"CC(=O)N1CCC(C(=O)N(CCCN2CCC(Sc3cnccn3)CC2)c2cccc(Cl)c2)CC1 [Example 79, 1-Acetyl-N-(3-chlorophenyl)-N-[3-[4-(2-pyrazinylthio)-1-piperidinyl]propyl]-4-piperidinecarboxamide Trifluoroacetate]"
11,95,"CS(=O)(=O)N1CCC(C(=O)N(CCCN2CCC(Cc3ccc(C(N)=O)cc3)CC2)c2ccc(Cl)c(Cl)c2)CC1 [Example 362, N-(3-{4-[4-(Aminocarbonyl)benzyl]-1-piperidinyl}propyl)-N-(3,4-dichlorophenyl)-1-(methylsulfonyl)-4-piperidinecarboxamide]"
12,97,"CC(=O)N1CCC(C(=O)N(CCCN2CCC(Cc3ccc(C(N)=O)cc3)CC2)c2ccc(C)c(Cl)c2)CC1 [Example 376, 1-Acetyl-N-(3-{4-[4-(aminocarbonyl)benzyl]-1-piperidinyl}propyl)-N-(3-chloro-4-methylphenyl)-4-piperidinecarboxamide]"
13,92,"CS(=O)(=O)N1CCC(C(=O)N(CCCN2CCC(Cc3ccc(-n4cnnn4)cc3)CC2)c2ccc(Cl)c(Cl)c2)CC1 [Example 309, N-(3,4-Dichlorophenyl)-1-(methylsulfonyl)-N-(3-{4-[4-(1H-tetrazol-1-yl)benzyl]-1-piperidinyl}propyl)-4-piperidinecarboxamide]"
14,99,"CN(C)C(=O)N1CCC(C(=O)N(CCCN2CCC(Cc3ccccc3)CC2)c2ccc(Cl)c(Cl)c2)CC1 [Example 27, N-[3-(4-Benzyl-1-piperidinyl)propyl]-N-(3,4-dichlorophenyl)-1-(N,N-dimethylcarbamoyl)-4-piperidinecarboxamide]"
15,99,"CC(=O)N1CCC(C(=O)N(CCCN2CCC(On3nnc4ccccc43)CC2)c2cccc(Cl)c2)CC1 [Example 88, 1-Acetyl-N-(3-chlorophenyl)-N-[3-[4-(1H-benzotriazol-1-yloxy)-1-piperidinyl]propyl]-4-piperidinecarboxamide Trifluoroacetate]"
16,98,"NC(=O)C(=O)N1CCC(C(=O)N(CCCN2CCC(Cc3ccc(F)cc3)CC2)c2ccc(Cl)c(Cl)c2)CC1 [Example 150, N-(3,4-Dichlorophenyl)-N-{3-[4-(4-fluorobenzyl)-1-piperidinyl]propyl}-1-oxamoyl-4-piperidinecarboxamide Trifluoroacetate]"
17,100,"CS(=O)(=O)N1CCC(C(=O)N(CCCN2CCC(Cc3ccc(S(N)(=O)=O)cc3)CC2)c2ccc(Cl)c(Cl)c2)CC1 [Example 244, N-(3-{4-[4-(Aminosulfonyl)benzyl]-1-piperidinyl}propyl)-N-(3,4-dichlorophenyl)-1-(methylsulfonyl)-4-piperidinecarboxamide]"
18,96,"COc1ccc(CC2CCN(CCCN(C(=O)C3CCN(S(C)(=O)=O)CC3)c3ccc(Cl)c(Cl)c3)CC2)cc1 [Example 250, N-(3,4-Dichlorophenyl)-N-{3-[4-(4-methoxybenzyl)-1-piperidinyl]propyl}-1-(methylsulfonyl)-4-piperidinecarboxamide]"
19,100,"CC(=O)N1CCC(C(=O)N(CCCN2CCC(Cc3ccc(-n4cnnn4)cc3)CC2)c2ccc(Cl)c(Cl)c2)CC1 [Example 300, 1-Acetyl-N-(3,4-dichlorophenyl)-N-(3-{4-[4-(1H-tetrazol-1-yl)benzyl]-1-piperidinyl}propyl)-4-piperidinecarboxamide]"
20,92,"CC(C)S(=O)(=O)N1CCC(C(=O)N(CCCN2CCC(Cc3ccc(F)cc3)CC2)c2ccc(Cl)c(Cl)c2)CC1 [Example 92, N-(3,4-Dichlorophenyl)-N-{3-[4-(4-fluorobenzyl)-1-piperidinyl]propyl}-1-(isopropylsulfonyl)-4-piperidinecarboxamide Trifluoroacetate]"
